Reference: patent US20140309210A1, “INDAZOLE COMPOUNDS, COMPOSITIONS AND METHODS OF USE THEREOF” (Genentech, Inc., priority 2011, published 2014)

Biological target: T1, purified ITK (Invitrogen PV3875) (Homo sapiens, UniProt Q08881)
T1 construct: purchased Invitrogen PV3875
T1 sequence (Q08881 1-620): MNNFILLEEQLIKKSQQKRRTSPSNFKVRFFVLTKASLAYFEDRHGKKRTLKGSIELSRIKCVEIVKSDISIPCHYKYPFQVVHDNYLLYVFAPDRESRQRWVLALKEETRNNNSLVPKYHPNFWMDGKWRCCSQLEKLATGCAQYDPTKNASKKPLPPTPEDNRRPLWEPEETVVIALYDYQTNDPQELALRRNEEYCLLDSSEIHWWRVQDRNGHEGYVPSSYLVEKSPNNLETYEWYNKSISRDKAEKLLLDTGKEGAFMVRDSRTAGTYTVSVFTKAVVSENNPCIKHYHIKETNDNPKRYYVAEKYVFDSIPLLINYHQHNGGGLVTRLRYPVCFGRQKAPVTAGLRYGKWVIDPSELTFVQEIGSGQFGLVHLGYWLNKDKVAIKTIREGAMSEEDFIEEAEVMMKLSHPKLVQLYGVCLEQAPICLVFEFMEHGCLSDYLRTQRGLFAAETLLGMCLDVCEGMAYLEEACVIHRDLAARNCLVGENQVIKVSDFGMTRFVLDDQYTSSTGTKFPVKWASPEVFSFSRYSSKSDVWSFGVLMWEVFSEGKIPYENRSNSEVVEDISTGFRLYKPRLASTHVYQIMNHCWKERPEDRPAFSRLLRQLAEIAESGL
Assay: ITK peptide phosphorylation assay (Caliper LabChip or LCMS)
Format: biochemical
Outline: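 Ki values come from Morrison quadratic fits of activity versus inhibitor concentration, adjusted for ATP-competitive inhibition against ATP/Km,app. Substrate and phosphopeptide from purified ITK reactions were resolved either microfluidically (Caliper, EDTA stop) or by LC-MS MRM (TCA stop).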

[1] = Table 2, Examples 1-140, class symbols
[2] = Table 3, specific values for certain examples

Ki (Table 1, Examples 141-279) [nM]	Ki [1] [nM]	Ki [2] [nM]	SMILES
0.06	–	–	CN(C)CCC(c1cccc(Cl)c1)n1cc(NC(=O)c2n[nH]c3cc(-c4cn[nH]c4)ccc23)cn1 (centres unmarked) [Example 249, N-[1-[1-(3-chlorophenyl)-3-(dimethylami-no)propyl]pyrazol-4-yl]-6-(1H-pyrazol-4-yl)-1H-indazole-3-carboxamide]
–	1 to 100	–	CNC(=O)c1ccc(Cn2cc(NC(=O)c3n[nH]c4cc(-c5cccnc5)ccc34)cn2)o1 [Example 33, N-[1-[[5-(methylcarbamoyl)-2-furyl]methyl]pyrazol-4-yl]-6-(3-pyridyl)-1H-indazole-3-carboxamide]
23.8	–	–	CC(=O)N(C)CCC(c1ccccc1)n1cc(NC(=O)c2n[nH]c3ccccc23)cn1 (centres unmarked) [Example 265, N-[1-[3-[acetyl(meth-yl)amino]-1-phenyl-propyl]pyrazol-4-yl]-1H-indazole-3-carboxamide]
7.99	–	–	CCN(CC)CCn1cc(NC(=O)c2n[nH]c3cc(-c4cn[nH]c4)ccc23)cn1 [Example 171, N-[1-[2-(diethylamino)eth-yl]pyrazol-4-yl]-6-(1H-pyrazol-4-yl)-1H-indazole-3-carboxamide]
–	1 to 100	–	CC(C)c1nc(Cn2cc(NC(=O)c3n[nH]c4cc(-c5cn[nH]c5)ccc34)cn2)cs1 [Example 21, 6-(1H-Pyrazol-4-yl)-1H-indazole-3-carboxylic acid [1-(2-isopropyl-thiazol-4-ylmethyl)-1H-pyrazol-4-yl]-amide]
–	1 to 100	–	N#Cc1cccc(Cn2cc(NC(=O)c3n[nH]c4ccc(F)cc34)cn2)c1 [Example 7, N-(1-(3-cyanobenzyl)-1H-pyrazol-4-yl)-5-fluoro-1H-indazole-3-carboxamide]
–	1 to 100	–	COc1ccc2c(C(=O)Nc3cnn(Cc4cccc(C#N)c4)c3)n[nH]c2c1 [Example 6, N-(1-(3-cyanobenzyl)-1H-pyrazol-4-yl)-6-methoxy-1H-indazole-3-carboxamide]
4.65	–	–	O=C(Nc1cnn(Cc2csc(C3CCNCC3)n2)c1)c1n[nH]c2cc(-c3cn[nH]c3)ccc12 [Example 160, N-[1-[[2-(4-piperidyl)thiazol-4-yl]methyl]pyrazol-4-yl]-6-(1H-pyrazol-4-yl)-1H-indazole-3-carboxamide]
–	> 100	307	CC(C)(c1cccc(C#N)c1)n1cc(NC(=O)c2n[nH]c3ccccc23)cn1 [Example 77, N-(1-(2-(3-Cyanophenyl)propan-2-yl)-1H-pyrazol-4-yl)-1H-indazole-3-carboxamide]
75.3	–	–	COc1cncc(-c2ccc3c(C(=O)Nc4cnn(CC5CCCCC5)c4)n[nH]c3c2)c1 [Example 222, N-[1-(cyclohexylmeth-yl)pyrazol-4-yl]-6-(5-methoxy-3-pyridyl)-1H-indazole-3-carboxamide]
1100	–	–	Cn1ccc(-c2ccc3c(C(=O)Nc4cnn(Cc5cccc(C#N)c5)c4)n[nH]c3c2)n1 [Example 203, N-[1-[(3-cyanophenyl)meth-yl]pyrazol-4-yl]-6-(1-methylpyrazol-3-yl)-1H-indazole-3-carboxamide]
–	1 to 100	–	COC(=O)c1cccc(Cn2cc(NC(=O)c3n[nH]c4cc(-c5cn[nH]c5)ccc34)cn2)c1 [Example 10, 3-(4-{[6-(1H-Pyrazol-4-yl)-1H-indazole-3-carbonyl]-amino}-pyrazol-1-ylmethyl)-benzoic acid methyl ester]
–	1 to 100	2	O=C(Nc1cnn(Cc2noc3ccccc23)c1)c1n[nH]c2cc(-c3cn[nH]c3)ccc12 [Example 14, 6-(1H-Pyrazol-4-yl)-1H-indazole-3-carboxylic acid (1-1,2-benzisoxazol-3-ylmethyl-1H-pyrazol-4-yl)-amide]
–	> 100	–	O=C(Nc1cnn(CCCN2CCCC(O)C2)c1)c1n[nH]c2ccccc12 (centres unmarked) [Example 74, N-(1-(3-(3-Hydroxypiperidin-1-yl)propyl)-1H-pyrazol-4-yl)-1H-indazole-3-carboxamide]
–	1 to 100	–	O=C(Nc1cnn(Cc2cc(CN3CCOCC3)on2)c1)c1n[nH]c2cc(-c3cn[nH]c3)ccc12 [Example 18, 6-(1H-Pyrazol-4-yl)-1H-indazole-3-carboxylic acid [1-(5-morpholin-4-ylmethyl-isoxazol-3-ylmethyl)-1H-pyrazol-4-yl]-amide]
